Measured values as given in article PMC2748827 (Nature, 2009).

Test system: A/Kawasaki/UTK-4/09 (H1N1)
Format: cell-based, influenza A virus (H1N1)

CCOC(=O)C1=C[C@@H](OC(CC)CC)[C@H](NC(C)=O)[C@@H](N)C1 [oseltamivir]
susceptibility of virus in cell culture (in words): resistance
